What was measured:
S. aureus biofilms = experiment: Visual MB staining of biofilms on orthopedic coupons, confirmed by SEM; assay type: cell-based, Staphylococcus aureus; details: S. aureus biofilms on titanium, cobalt chromium, polyethylene, PEEK coupons; dilute MB
Method: (§1) Staphylococcus aureus (ATCC 6538) and Pseudomonas aeruginosa (ATCC 27853) biofilms were grown for the respective experiments (2 days) in a CBR 90 CDC biofilm reactor (BioSurface Technologies Corporation, Bozeman, Mont.) on either titanium, cobalt chromium, polyether ether ketone (PEEK), and polyethylene (PE) coupons using previously established methods. Briefly, a 0.5 McFarland standard (˜7.5×10^7 colony forming units (CFU)) was made from a 24 hour tryptic soy agar plate culture; 1 mL was then used to inoculate 500 mL of 100% Brain Heart Infusion (BHI) broth in the biofilm reactor. The reactor and its contents were incubated at 34° C. on a hot plate with baffle rotation for 24 hours. After 24 hours, the reactor was flushed continuously with 10% BHI at 6.94 mL/min for the subsequent 24 hours. Prior to subsequent work, the biofilm coupons were removed aseptically and rinsed in PBS. Quantification of biofilm bioburden was performed on representative coupons from each reactor by dispersing the respective biofilm into 2 mL of fresh 1× phosphate buffered saline (PBS) following an established protocol: sequentially vortexing for 1 minute, sonicating for 10 minutes and vortexing […]. The CFUs were calculated by 10-fold serial dilution plating and colony counting. […]

P. aeruginosa biofilms = experiment: as above; assay type: cell-based, Pseudomonas aeruginosa; details: P. aeruginosa biofilms on titanium, cobalt chromium, polyethylene, PEEK coupons; dilute MB
Method: as §1

[1] = test system: Pseudomonas aeruginosa (ATCC 27853) biofilms; experiment: Transmission light photometry of MB bound to stained biofilms; assay type: cell-based; details: P. aeruginosa biofilm, 0.01% MB, 5 min stain, n=6
Method: as §1, with “After 24 hours, the reactor was flushed continuously with 10% BHI at 6.94 mL/min for the subsequent 24 hours. Prior to subsequent work, the biofilm coupons were removed aseptically and rinsed in PBS.” left out
(§2) Transmission photometry was used to determine the amount of MB bound to biofilms grown and stained using the above protocols. […] The exposure was fixed for all images analyzed; ambient light sources were eliminated by darkening the room. […]

[2] = test system: Staphylococcus aureus (ATCC 6538) biofilms; experiment: as above; assay type: cell-based; details: S. aureus biofilm, 0.01% MB, 5 min stain, n=6
Method: as §1, with “After 24 hours, the reactor was flushed continuously with 10% BHI at 6.94 mL/min for the subsequent 24 hours. Prior to subsequent work, the biofilm coupons were removed aseptically and rinsed in PBS.” left out
as §2

CN(C)c1ccc2nc3ccc(=[N+](C)C)cc-3sc2c1 [MB, methylene blue]
visual staining of biofilm (S. aureus biofilms): visually turned blue | visual staining of biofilm (P. aeruginosa biofilms): visually turned blue | number of MB molecules per CFU [1]: 2.84×10^7 molecules/CFU | number of MB molecules per CFU [2]: 6.95×10^6 molecules/CFU

Reference: patent US20210386505A1, “BACTERIAL BIOFILM STAINING DEVICE AND METHODS OF USE” (University of Utah Research Foundation, priority 2020, published 2021)
